Here are results for 13 compounds from ChEMBL document CHEMBL1201862, “PubChem BioAssay data set” (2004).

Active and inactive are the calls of the source.

The target in one data set is Troponin, cardiac muscle (Homo sapiens, UniProt P19429+P45379+P63316). As to the kind of experiment: Fluorescence-based biochemical high throughput dose response assay for activators of the calcium sensitivity of cardiac Regulated Thin Filaments (RTF). [Related pubchem assays (depositor defined):AID493008, AID493018, AID504382, AID504383]. Format: protein-complex assay.

The target in data set [1] is T1, Histone-lysine N-methyltransferase NSD2 (Homo sapiens, UniProt O96028).
T1 sequence (O96028 whole entry): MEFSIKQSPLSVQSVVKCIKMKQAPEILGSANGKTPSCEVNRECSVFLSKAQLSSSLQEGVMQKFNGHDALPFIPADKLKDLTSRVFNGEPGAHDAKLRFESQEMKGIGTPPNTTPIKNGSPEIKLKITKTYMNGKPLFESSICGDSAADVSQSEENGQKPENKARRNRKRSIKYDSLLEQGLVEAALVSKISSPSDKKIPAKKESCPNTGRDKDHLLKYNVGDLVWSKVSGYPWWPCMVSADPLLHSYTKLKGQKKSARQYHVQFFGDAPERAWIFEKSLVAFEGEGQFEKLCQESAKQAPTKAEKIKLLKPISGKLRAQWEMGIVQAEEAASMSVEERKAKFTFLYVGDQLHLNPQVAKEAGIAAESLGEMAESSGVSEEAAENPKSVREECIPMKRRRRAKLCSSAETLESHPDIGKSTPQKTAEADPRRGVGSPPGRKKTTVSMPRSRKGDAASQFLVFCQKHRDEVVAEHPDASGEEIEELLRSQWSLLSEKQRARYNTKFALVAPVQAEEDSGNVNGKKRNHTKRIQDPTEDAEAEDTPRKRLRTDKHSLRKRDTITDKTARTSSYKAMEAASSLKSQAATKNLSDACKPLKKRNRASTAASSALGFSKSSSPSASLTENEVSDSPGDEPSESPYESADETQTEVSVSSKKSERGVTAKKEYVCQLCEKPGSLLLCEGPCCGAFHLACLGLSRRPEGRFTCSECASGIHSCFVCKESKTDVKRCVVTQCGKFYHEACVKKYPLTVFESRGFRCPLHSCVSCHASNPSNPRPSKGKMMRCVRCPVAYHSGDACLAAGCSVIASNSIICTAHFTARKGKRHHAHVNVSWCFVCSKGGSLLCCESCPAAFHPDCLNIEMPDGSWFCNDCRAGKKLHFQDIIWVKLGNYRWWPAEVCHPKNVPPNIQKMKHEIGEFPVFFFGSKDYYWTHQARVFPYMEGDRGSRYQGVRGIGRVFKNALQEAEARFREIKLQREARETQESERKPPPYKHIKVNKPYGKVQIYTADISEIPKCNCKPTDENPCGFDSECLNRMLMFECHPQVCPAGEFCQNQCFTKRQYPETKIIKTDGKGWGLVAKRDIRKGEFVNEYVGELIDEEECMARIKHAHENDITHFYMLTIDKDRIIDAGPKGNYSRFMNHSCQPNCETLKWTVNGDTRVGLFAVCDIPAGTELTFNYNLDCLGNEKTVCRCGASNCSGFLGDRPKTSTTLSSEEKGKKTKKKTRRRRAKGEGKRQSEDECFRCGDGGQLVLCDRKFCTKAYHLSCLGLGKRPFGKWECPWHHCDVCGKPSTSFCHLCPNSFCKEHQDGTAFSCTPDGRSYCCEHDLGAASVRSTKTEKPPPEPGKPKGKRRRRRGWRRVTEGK
Format: biochemical.

Data set [2] has as its target DNA dC->dU-editing enzyme APOBEC-3G (Homo sapiens, UniProt Q9HC16). In kind it is functional.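 Note: Dose-response counterscreen measuring inhibition of APOBEC3G DNA deaminase activity, run while confirming APOBEC3A inhibitors.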
The target of data set [3] is DNA dC->dU-editing enzyme APOBEC-3A (Homo sapiens, UniProt P31941). Kind of data set: Dose Response confirmation of small molecule APOBEC3A DNA Deaminase Inhibitors via a fluorescence-based single-stranded DNA deaminase assay. [Related pubchem assays (depositor defined):AID493011, AID493024]. Format: functional.
DNA dC->dU-editing enzyme APOBEC-3A, sequence (P31941 whole entry): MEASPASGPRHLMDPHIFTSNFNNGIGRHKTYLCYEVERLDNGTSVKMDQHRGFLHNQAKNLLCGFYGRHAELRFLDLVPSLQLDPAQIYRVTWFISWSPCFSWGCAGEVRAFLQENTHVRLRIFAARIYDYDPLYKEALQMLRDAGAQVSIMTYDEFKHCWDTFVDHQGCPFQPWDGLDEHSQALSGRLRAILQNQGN
The next data set deals with Escherichia coli. As to the kind of experiment: microbe, parasite or virus in culture.
In data set [4] the target is T2, Sentrin-specific protease 6 (Homo sapiens, UniProt Q9GZR1).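 Note: Luminescence-based dose-response confirmatory assay of SENP6 inhibition, following up an ultra-high-throughput screen.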
T2 sequence (Q9GZR1 whole entry): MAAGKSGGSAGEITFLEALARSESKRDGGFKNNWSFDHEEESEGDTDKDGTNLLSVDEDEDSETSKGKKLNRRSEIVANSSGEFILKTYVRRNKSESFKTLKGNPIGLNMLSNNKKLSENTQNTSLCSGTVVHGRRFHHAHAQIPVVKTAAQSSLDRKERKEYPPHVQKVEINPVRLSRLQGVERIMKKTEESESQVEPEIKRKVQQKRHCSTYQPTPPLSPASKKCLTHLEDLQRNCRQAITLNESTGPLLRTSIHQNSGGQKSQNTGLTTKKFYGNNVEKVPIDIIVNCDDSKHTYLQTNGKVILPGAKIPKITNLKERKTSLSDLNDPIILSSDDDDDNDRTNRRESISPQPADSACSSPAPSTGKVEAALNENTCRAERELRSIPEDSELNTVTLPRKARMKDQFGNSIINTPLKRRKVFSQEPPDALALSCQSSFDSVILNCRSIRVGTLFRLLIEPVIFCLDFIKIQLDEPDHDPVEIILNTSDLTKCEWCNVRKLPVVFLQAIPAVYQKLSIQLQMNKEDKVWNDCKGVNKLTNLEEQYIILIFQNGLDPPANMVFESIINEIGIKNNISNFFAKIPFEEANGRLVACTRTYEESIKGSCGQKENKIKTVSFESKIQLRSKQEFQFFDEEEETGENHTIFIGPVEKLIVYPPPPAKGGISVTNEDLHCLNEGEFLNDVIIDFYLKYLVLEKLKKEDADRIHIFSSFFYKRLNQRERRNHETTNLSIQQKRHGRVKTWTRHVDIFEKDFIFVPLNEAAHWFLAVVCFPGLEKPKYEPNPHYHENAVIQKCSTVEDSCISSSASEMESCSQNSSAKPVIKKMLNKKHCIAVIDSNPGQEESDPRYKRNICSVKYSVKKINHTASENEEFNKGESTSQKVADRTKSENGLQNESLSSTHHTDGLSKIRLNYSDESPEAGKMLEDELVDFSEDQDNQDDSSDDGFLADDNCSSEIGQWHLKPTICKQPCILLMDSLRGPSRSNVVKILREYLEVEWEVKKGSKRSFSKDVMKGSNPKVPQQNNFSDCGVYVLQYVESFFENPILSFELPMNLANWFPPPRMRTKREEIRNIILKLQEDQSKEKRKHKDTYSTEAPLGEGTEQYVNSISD
In kind it is functional.

For data set [5], the target named is T3, Sentrin-specific protease 7 (Homo sapiens, UniProt Q9BQF6).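 Note: Luminescence-based dose-response confirmation of ultra-high-throughput screening hits, measuring inhibition of SENP7.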
T3 sequence (Q9BQF6 whole entry): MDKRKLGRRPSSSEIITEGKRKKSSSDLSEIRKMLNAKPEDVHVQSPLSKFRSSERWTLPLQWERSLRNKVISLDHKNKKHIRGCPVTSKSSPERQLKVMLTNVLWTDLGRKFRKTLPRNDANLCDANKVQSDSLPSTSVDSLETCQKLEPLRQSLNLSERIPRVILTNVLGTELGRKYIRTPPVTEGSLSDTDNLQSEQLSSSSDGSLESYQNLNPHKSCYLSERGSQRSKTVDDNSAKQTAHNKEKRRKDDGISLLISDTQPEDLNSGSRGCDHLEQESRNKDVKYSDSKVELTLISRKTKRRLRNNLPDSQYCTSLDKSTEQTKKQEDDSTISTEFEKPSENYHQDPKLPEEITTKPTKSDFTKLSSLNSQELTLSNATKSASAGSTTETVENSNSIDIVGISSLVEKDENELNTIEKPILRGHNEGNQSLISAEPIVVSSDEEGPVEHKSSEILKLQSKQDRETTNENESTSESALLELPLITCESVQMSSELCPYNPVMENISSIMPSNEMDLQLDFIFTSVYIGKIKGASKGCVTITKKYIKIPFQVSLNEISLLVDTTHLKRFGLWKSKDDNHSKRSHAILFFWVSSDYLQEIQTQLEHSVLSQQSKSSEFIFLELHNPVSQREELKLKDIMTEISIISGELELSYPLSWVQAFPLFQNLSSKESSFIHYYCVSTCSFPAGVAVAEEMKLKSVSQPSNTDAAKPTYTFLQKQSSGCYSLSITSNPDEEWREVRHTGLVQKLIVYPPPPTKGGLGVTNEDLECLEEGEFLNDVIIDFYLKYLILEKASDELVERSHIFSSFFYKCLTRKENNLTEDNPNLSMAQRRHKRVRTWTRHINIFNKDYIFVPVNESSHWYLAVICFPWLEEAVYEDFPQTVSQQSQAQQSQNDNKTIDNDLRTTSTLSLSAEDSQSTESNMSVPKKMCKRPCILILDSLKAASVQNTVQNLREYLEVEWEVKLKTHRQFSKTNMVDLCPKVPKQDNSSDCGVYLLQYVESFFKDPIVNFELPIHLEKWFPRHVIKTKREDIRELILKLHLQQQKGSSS
In kind it is functional.

Data set [6] has as its target T4, Sentrin-specific protease 8 (Homo sapiens, UniProt Q96LD8).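 Note: luminescence read-out of SENP8 inhibition, dose-response confirmation following an ultra-high-throughput screen.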
T4 sequence (Q96LD8 whole entry): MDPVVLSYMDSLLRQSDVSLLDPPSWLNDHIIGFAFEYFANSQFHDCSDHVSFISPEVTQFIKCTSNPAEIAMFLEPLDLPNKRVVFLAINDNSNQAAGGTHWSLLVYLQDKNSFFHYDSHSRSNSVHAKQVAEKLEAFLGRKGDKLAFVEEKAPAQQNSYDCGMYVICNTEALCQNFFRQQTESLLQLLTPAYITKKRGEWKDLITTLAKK
In kind it is functional.

In a further data set the target is T5, Caspase-3 (Homo sapiens, UniProt P42574).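 Note: Dose-response selectivity test against caspase-3 for candidate inhibitors of sentrin-specific proteases (SENPs).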
T5 sequence (P42574 whole entry): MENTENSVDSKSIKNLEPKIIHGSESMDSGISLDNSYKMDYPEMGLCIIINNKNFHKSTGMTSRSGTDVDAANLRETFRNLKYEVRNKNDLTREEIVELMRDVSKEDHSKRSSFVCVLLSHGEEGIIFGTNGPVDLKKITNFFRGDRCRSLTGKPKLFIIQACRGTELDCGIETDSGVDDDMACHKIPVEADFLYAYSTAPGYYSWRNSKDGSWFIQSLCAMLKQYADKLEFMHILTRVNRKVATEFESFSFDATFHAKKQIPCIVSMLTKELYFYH
Format: functional.

The nature of data set [7]: Luminescence Cell-Based Dose Response HTS to Identify Inhibitors of 5'UTR Stem-Loop Driven Prion Protein mRNA Translation in H4 Neuroglioblastoma Cells. [Related pubchem assays: 1827 (Project Summary), 1813 (Primary HTS)]. In kind it is functional.
A short description of data set [8]: cells. Format: functional, cell-based.
A short description of data set [9]: cells. In kind it is functional, cell-based. This is another data set of the same source.
The next data set concerns the target Genome polyprotein (dengue virus type 2, UniProt P29990). Kind of data set: Dengue-2 NS5 methyltransferase inhibitors, primary screen, biochemical, confirmation dose response (AID 588689). Format: functional.
Another data set has as its target Cytochrome P450 2C9 (Homo sapiens, UniProt P11712).
For another data set, the target named is Cytochrome P450 2D6 (Homo sapiens, UniProt P10635).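 Note: CYP2D6 member of a cytochrome P450 panel assay.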
Cytochrome P450 2D6, sequence (P10635 whole entry): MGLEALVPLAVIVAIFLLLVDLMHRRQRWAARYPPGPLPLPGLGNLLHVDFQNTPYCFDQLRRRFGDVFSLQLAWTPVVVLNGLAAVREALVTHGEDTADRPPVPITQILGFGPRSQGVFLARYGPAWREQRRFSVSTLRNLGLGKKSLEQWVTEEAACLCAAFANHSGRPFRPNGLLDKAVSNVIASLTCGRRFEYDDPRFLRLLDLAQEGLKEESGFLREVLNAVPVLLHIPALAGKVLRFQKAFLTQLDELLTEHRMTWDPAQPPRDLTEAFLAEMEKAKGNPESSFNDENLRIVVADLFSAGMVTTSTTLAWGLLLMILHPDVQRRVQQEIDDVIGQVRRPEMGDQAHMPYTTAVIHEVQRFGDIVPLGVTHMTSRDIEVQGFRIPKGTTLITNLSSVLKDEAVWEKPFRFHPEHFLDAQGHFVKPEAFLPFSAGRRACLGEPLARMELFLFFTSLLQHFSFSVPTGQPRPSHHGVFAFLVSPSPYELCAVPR

DNA dC->dU-editing enzyme APOBEC-3G, sequence (Q9HC16 whole entry): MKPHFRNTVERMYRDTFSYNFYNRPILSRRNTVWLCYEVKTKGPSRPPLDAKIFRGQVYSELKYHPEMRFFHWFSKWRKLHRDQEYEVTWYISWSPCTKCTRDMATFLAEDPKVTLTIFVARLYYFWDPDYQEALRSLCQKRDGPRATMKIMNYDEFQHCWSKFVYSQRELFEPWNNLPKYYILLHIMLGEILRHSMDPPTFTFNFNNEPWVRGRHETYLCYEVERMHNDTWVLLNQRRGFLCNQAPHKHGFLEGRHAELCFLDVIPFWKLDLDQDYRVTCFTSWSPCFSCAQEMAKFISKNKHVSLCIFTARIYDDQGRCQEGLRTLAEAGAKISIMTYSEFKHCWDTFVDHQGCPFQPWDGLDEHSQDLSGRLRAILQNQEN
Cytochrome P450 2C9, sequence (P11712 whole entry): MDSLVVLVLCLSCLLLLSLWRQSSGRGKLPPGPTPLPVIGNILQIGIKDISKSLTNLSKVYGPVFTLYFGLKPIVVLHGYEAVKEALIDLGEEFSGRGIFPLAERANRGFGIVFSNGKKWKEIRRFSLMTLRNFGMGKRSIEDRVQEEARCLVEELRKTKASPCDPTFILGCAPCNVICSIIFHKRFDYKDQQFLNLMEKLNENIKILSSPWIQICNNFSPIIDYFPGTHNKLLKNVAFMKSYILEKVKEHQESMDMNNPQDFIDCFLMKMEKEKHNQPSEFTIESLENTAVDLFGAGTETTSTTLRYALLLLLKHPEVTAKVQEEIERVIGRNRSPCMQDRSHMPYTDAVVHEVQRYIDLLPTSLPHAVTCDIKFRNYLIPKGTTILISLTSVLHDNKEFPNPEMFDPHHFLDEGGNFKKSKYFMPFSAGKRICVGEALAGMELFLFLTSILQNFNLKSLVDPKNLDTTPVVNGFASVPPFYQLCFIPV
Genome polyprotein, sequence (P29990 2492-3391 limits assumed): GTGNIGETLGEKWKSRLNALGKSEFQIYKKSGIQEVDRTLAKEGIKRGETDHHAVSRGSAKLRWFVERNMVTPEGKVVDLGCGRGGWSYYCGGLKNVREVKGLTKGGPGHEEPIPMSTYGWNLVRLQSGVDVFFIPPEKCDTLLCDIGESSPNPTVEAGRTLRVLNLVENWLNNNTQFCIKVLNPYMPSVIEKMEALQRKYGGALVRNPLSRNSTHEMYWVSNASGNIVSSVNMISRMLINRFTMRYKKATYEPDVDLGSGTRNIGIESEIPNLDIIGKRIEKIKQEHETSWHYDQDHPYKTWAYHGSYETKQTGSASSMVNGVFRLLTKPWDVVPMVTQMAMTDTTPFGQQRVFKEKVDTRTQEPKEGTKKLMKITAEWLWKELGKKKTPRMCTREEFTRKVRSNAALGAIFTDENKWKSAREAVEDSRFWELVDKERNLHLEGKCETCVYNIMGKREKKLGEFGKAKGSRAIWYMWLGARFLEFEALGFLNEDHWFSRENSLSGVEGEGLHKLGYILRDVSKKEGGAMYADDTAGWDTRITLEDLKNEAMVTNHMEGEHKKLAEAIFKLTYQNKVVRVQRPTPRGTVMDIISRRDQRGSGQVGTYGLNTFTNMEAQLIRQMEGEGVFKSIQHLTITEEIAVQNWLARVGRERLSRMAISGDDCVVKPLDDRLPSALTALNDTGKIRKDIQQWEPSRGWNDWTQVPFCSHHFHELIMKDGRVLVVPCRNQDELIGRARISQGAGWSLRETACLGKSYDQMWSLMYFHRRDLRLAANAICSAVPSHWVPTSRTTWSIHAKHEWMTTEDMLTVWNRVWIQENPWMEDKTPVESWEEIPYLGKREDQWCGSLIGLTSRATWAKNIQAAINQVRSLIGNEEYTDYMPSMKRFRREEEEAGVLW

Broadly, the EC50 is the midpoint of the concentration-response curve. Turning to `COc1ccc(-c2nn(-c3ccccc3)cc2/C=N/NC(N)=S)cc1OC`, the EC50 at Troponin, cardiac muscle was > 71.5 µM (inactive).

For `CC1CN(c2ccc(NS(=O)(=O)c3ccccc3)cc2C(=O)O)CC(C)O1` (configuration not stated), the EC50 at Troponin, cardiac muscle is > 71.5 µM (inactive).

The AC50 is the midpoint of the concentration-response curve, whichever way the signal moves. The IC50 is the midpoint of a concentration-inhibition curve. As to `O=C(O)c1ccc(CSc2n[nH]c(-c3ccco3)n2)cc1`, in data set [1], the AC50 was > 20 µM (inactive). Besides, the IC50 was 19.3 µM (active) in data set [2] and 9.95 µM (active) in data set [3].

For the compound `COc1ccc(Cl)cc1N=C(S)NCc1cccnc1`, the AC50 with Escherichia coli is 29.7 µM (active).

With `O=[N+]([O-])c1cccc(/C=N/Nc2ccccn2)c1`, the IC50 in data set [4] is > 100 µM (inactive); in data set [5], 7.65 µM (active); in [6], > 100 µM (inactive); at Caspase-3, 8.82 µM (active).

Regarding `CCOC(=O)c1ccc(NC(=O)/C=C/c2cccs2)cc1`, the IC50 is 15 µM (active) in [4], 4.96 µM (active) in data set [5], 14.5 µM (active) in [6] and 21.6 µM (active) on Caspase-3.

For the compound `O=C(O)c1ccc2cc(-c3ccccc3)[nH]c2c1`, the EC50 in data set [7] was 11.8 µM (inconclusive); in “cells [8]”, 2.55 µM (active); in “cells [9]”, > 350 µM (not active). Also, the IC50 is 1.08 µM (active) in data set [4], 0.938 µM (active) in data set [5], 1.53 µM (active) in [6] and 1.22 µM (active) on Caspase-3.

Turning to `CCOC(=O)N1CCC(N(CCN(C)C)C(S)=Nc2ccc(Oc3ccccc3)cc2)CC1`, the AC50 in the data set on Escherichia coli was 43.6 µM (active).

With `N#C/C(=C\c1ccc(C#N)cc1)C(=O)c1ccccc1`, the IC50 at Genome polyprotein was > 100 µM (active).

Consider `Nc1nnnn1CC(=O)N/N=C/c1ccc(-c2cccc(Cl)c2)o1`, for which, in the data set on Escherichia coli, the AC50 was 21.6 µM (active).

Consider `COc1ccccc1-c1noc(CSc2nc(C)cc(O)n2)n1`, for which the results for the IC50 in data set [2] and in [3] were 19.4 µM (active) and 16.6 µM (active), respectively.

As for `Cc1[nH]c2ccccc2c1/C=C(\C#N)C(=O)NC(C)c1ccccc1` (configuration not stated), the concentration at half-maximal activity (AC50) result at Cytochrome P450 2C9 was “inconclusive”; at Cytochrome P450 2D6, 8.91 µM (inconclusive). In addition, the values for the IC50 in data set [2] and in data set [3] were 2.64 µM (active) and 1.87 µM (active), respectively.

`CC(=O)c1ccc[n+](CC(=O)NC(C)c2ccccc2)c1` (configuration not stated): the results for the IC50 in [2] and in [3] were 6.17 µM (active) and 3.57 µM (active), respectively.
